Source: patent US20250162973A1, “METHODS OF SYNTHESIS AND USES OF AGRIMOL COMPOUNDS” (Versitech Limited, priority 2022, published 2025)
Where two headings read alike, the source gives them in different places.

Assays:
[1] = system: A549 xenograft; assay: Human tumor xenograft model; assay type: in vivo, nude mice; conditions: AGB 3 mg/kg, tail intravenous injection
[2] = Hematological examination in MTD test; assay type: in vivo; conditions: 12.8 mg/kg, day 14
Protocol: The MTD test in this study was done in collaboration with Tianjin Institute of Pharmaceutical Research (TIPR). […] A total of 80 mice were randomly assigned into four groups (10 male and 10 female mice in each group) in this study. Four groups included 16.0 mg/kg of AGB group, 12.8 mg/kg of AGB group, vehicle control group (10% DMSO+0.8% Tween-80 in normal saline), and the blank control group (normal saline).
Then, the body weights of surviving animals were measured on the 1st, 3rd, 7th and 14th days, respectively. At the end of experiment, the hematology, blood biochemistry, anatomical examination, and histopathology examination were performed in both vehicle control group and the MTD group (12.8 mg/kg). The data were presented as the mean±standard deviation.

[3] = molecular target: T1, TALDO1 (Homo sapiens, UniProt P37837); assay: Targeted metabolomics of PPP intermediates and intracellular NADPH; assay type: cell-based; conditions: after treatment of AGB
T1 construct: endogenous in cells
T1 sequence (P37837 1-337): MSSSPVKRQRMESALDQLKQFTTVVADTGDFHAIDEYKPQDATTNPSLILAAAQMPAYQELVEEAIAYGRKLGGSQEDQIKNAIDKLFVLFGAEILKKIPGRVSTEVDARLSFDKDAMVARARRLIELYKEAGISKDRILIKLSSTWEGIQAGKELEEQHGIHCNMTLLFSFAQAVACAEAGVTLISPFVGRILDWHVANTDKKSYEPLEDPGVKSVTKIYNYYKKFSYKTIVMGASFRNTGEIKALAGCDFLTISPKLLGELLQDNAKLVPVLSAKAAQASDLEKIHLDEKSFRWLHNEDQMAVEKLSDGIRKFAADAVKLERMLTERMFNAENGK
Protocol: TALDO1 is a key enzyme of the nonoxidative PPP providing ribose-5-phosphate for nucleic acid synthesis and NADPH (the reduced form of Nicotinamide adenine dinucleotide phosphate) for lipid biosynthesis. Targeted metabolomics analysis was performed for measuring of the intermediate metabolites involved in the PPP pathway. […] PPP activation has been widely found in different types of cancer because of the uncontrolled proliferation of cancer cells. […] Moreover, enhanced production of NADPH is crucial to increase the intracellular redox power of cancer cells to escape from oxidative stress.

[4] = system: human cancer cell lines (MDA-MB-231, MCF-7, HepG2, HeLa, AGS, HCT116, SW480, SUNE-1, H460, HCC827, H1650, A549); assay: MTT cell viability assay, panel of human cancer cell lines; assay type: cell-based; conditions: Homo sapiens
Protocol: SUNE1 (nasopharyngeal carcinoma), AGS (gastric adenocarcinoma), HeLa (cervix adenocarcinoma), HepG2 (hepatocellular carcinoma), U-87 MG (human glioblastoma cell), U2OS (osteosarcoma), MCF-7 (breast adenocarcinoma), MDA-MB-231 (breast adenocarcinoma), HCT116 (colorectal carcinoma), SW480 (colorectal adenocarcinoma), NCI-H460 (large cell lung carcinoma), NCI-H1650 (adenocarcinoma lung carcinoma), HCC827 (adenocarcinoma lung carcinoma), A549 (lung carcinoma), and CCD-19Lu (human lung fibroblast normal cell) were all obtained from American Type Culture Collection (ATCC, Manassas, VA, USA). Minimum Essential Media (MEM, Gibco®, ThermoFisher Scientific), Dulbecco's Modified Eagle Medium (DMEM, Gibco®, ThermoFisher Scientific), and RPMI-1640 Medium (Gibco®, ThermoFisher Scientific) supplemented with 10% Fetal Bovine Serum (Gibco®, ThermoFisher Scientific), and 100 U/mL penicillin-streptomycin (Gibco™, ThermoFisher Scientific) were used for cell culture. Cells were placed into an incubator with 5% CO2 that temperature was set at 37° C. For subculturing cells, 0.05% Trypsin-EDTA (Gibco®) was used for detaching and a subcultivation ratio of 1:5 was used.
The cell viability assay was performed by a typical MTT assay. Briefly, 5*10^3 cells were seeded in the 96-well flat bottom plate and allowed to attach overnight. After drug treatment with a serial dilution from 100 μM for 48 h, 10 μL of MTT solution (5 mg/ml prepared in PBS, filtered) was added into each well and incubate for 4 h at 37° C. The formed formazan was then dissolved with SDS solution (10% SDS in 10 mM HCl) and followed the determination of absorbance at 590 nm by a microplate reader. The change in cell viability was then calculated for each drug concentration, then normalized to control. Dose response curves from each assay were fit to a Boltzmann sigmoidal function (GraphPad Prism8, version8.0.0). The cytotoxicity of AGB and its derivatives was determined by the calculation of IC50 value (half maximal inhibitory concentration) from fitted curves, which was the concentration of drug induced 50% cell viability.

[5] = system: NCI-H460 cells; assay: Apoptosis assays (Hoechst, annexin V/PI, Western blotting); assay type: cell-based, human
Protocol: FIG. 4 is a graph showing AGB induced apoptosis in NCI-H460 cells by the Annexin-V/PI double-staining assay. After treating with AGB for 24 h and 36 h, respectively, cells were stained with annexin V-FITC and propidium iodide and analyzed by flow cytometry.
The mitochondrial fission and mitochondrial membrane potential depolarization are involved in the induction of cell apoptosis and also play a central role to the apoptotic pathway. Therefore, several apoptosis assays were performed. […] Induction of apoptosis by AGB in NCI-H460 cells was further supported through monitoring PARP, caspase-9, and caspase-3 cleavage as well as through changes in the levels of a panel of proteins commonly involved in apoptotic signaling via Western blotting experiments (data not shown).

CCCC(=O)c1c(O)c(Cc2c(O)c(Cc3c(O)c(C)c(OC)c(C(=O)CCC)c3O)c(O)c(C(=O)[C@@H](C)CC)c2O)c(O)c(C)c1OC [AGB, Agrimol B]
tumor growth inhibition rate [1]: 60% | E (eosinophils) [2]: 0.29 ± 0.11 ×10^9/L | E(%) [2]: 5.48 ± 1.64% | HCT [2]: 47.54 ± 2.21% | HGB [2]: 138.20 ± 9.38 g/L | L (lymphocytes) [2]: 4.22 ± 1.32 ×10^9/L | L(%) [2]: 77.53 ± 2.05% | M (monocytes) [2]: 0.09 ± 0.03 ×10^9/L | M(%) [2]: 1.64 ± 0.46% | MCH [2]: 15.20 ± 0.97 pg | MCHC [2]: 291.00 ± 20.17 g/L | MCV [2]: 52.25 ± 2.16 fL | N (neutrophils) [2]: 0.78 ± 0.28 ×10^9/L | N(%) [2]: 14.24 ± 2.15% | PLT [2]: 1733.80 ± 371.53 ×10^9/L | RBC [2]: 9.11 ± 0.45 ×10^12/L | Ret [2]: 0.81 ± 0.09 ×10^12/L | Ret(%) [2]: 8.83 ± 0.74% | WBC [2]: 5.44 ± 1.66 ×10^9/L | PPP intermediate metabolites [3]: significantly decreased | intracellular content of NADPH [3]: significant decrease | IC50 ([4]; 48-h treatment, range over tested cancer cell lines, read-out: IC50 values for the tested cancer cell lines): 1.83 to 5.81 µM | IC50 ([4]; MTT assay, cancer cells, read-out: IC50 values against cancer cells): < 10 µM | Hoechst staining [5]: chromatin condensation and fragmentation | release of mitochondrial factors to cytosol [5]: release of cytochrome c and apoptosis inducing factor AIF | annexin V and PI flow cytometry ([5]; 24 h and 36 h AGB treatment): increase of the early and late apoptotic cell populations
